Experimental data: US20140257169A1, “USE OF PHOTO[…] PREPARATION OF VIRUS-INACTIVATING MEDICAMENTS FOR TREATING DISEASES” (Beijing Ecyber Medical Technology R & D Center Co. , Ltd., priority 2013, published 2014)

Test system: thoracic aorta blood vessel plaque
Conditions: high fat/high cholesterol fed rabbit; 5-ALA 80 mg/kg intraperitoneal 1.5 h before; substrate (carbamide peroxide) intravenously infused; irradiation once with 5 Gy; examined on the seventh day
Text: The New-Zealand rabbit model of blood vessel plaque is a common animal experimental model. […] The blood vessel plaque was taken as the target region and positioned, and a radiotherapy plan was made.

## NCC(=O)CCC(=O)O [5-ALA]
  regression of thoracic aorta blood vessel plaque (CTA angiography and MR): completely disappeared
